{"source": "patent US11572362B2", "about": "“Pyrrolo[1,2-b]pyridazine derivatives” (Gilead Sciences, Inc., priority 2018, dated 2023)", "key": {"IRAK4": {"target": "IRAK4 (Homo sapiens (Human), UniProt Q9NWZ3)", "sequence (Q9NWZ3 whole entry)": "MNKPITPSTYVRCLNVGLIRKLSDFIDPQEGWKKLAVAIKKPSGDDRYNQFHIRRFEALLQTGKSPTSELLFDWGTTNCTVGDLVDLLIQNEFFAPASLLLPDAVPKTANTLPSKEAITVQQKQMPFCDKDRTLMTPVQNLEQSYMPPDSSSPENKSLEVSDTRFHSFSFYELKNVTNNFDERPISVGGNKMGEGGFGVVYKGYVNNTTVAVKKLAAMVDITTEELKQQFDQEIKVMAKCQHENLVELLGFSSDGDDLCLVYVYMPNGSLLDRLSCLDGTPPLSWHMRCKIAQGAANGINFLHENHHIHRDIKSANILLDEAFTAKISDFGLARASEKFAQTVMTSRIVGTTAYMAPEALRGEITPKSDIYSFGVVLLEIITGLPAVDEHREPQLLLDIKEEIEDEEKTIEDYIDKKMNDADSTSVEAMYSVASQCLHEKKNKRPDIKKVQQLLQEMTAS", "test": "IRAK4 Biochemical Assay (TR-FRET/HTRF)", "settings": "IRAK4 enzyme 0.75 nM, 500 μM ATP, 2 μM STK1 peptide, 120 min", "protocol": "IRAK4 Biochemical Assay Procedure:\nIRAK4 enzyme (Carna Biosciences, Chuo-ku, Kobe, Japan) activity was measured by detecting phosphorylated peptide substrate formation using an antibody against the phosphorylated peptide substrate. This is a time-resolved fluorescence resonance energy transfer (TR-FRET) immunoassay, based on the STK1 KinEASE Assay (Cisbio, Bedford, Mass.). The assay was designed as a simple two-step, endpoint assay (a 5 μl enzyme reaction followed by 5 μl stop and detect Solution) performed in ProxiPlate-384 Plus plates (Perkin Elmer, Waltham, Mass.). Staurosporine, a non-selective kinase inhibitor was used as a positive control. Compounds diluted in DMSO were spotted into 384 well plates using a Labcyte® Echo 550 Liquid Handling System prior to addition of IRAK4 enzyme and peptide substrate. Reaction solutions were delivered using a Multi-Flo (Bio-Tek Instruments). The enzyme and peptide solution was incubated with compound for 15 minutes at room temp before the reaction was initiated by the addition of ATP. The standard 5 μl reaction mixture contained 500 μM ATP, 2 μM peptide (STK1 Peptide), 0.75 nM of IRAK4 in reaction buffer (50 mM HEPES, pH 7.0, 0.02% NaN3, 0.01% BSA, 0.1 mM Orthovanadate, 5 mM MgCl2, 0.025% NP-40, 1 mM DTT). After 120 min of incubation at room temperature, 5 μl of Stop and Detect Solution (1:100 Cryptate labeled anti-phosphorylated peptide antibody solution and 125 nM Tracer in a 50 mM HEPES pH 7.0 detection buffer containing sufficient EDTA) was added. The plate was then further incubated for 60 minutes at room temperature and read on Envision 2103 Multilabeled reader (PerkinElmer) with excitation/emission/FRET emission at 340 nm/615 nm/665 nm, respectively. Fluorescence intensities at 615 nm and 665 nm emission wavelengths were expressed as a ratio (665 nm/615 nm). Percentage of inhibition was calculated as below: % Inhibition=100×(RatioSample−Ratio0% Inhibition)/(Ratio100% Inhibition−Ratio0% Inhibition)\nThe 0% inhibition value comes from control wells lacking inhibitor. The 100% inhibition value comes from control wells containing a saturating amount of known inhibitor staurosporine."}, "TNFα": {"tested_on": "TNFα", "test": "IRAK4 Monocyte TNFα Cell Based Assay", "settings": "Monocyte; cryopreserved human monocytes, 50 pg/ml LPS, compound 1 hour pre-treatment, 4 hours stimulation, TNFα by TR-FRET", "protocol": "IRAK4 Monocyte TNFα Cell Based Assay Procedure:\nThe cell suspension was then plated at a density of 5,000 cells/well onto black 384 well Greiner clear bottom plates. Plates were pre-spotted with test compounds and serially diluted in DMSO where 40 nL/well were delivered using the Echo 550 acoustic liquid dispenser (Labcyte®) for a final DMSO concentration of 0.1%. Plated cells were treated with compound for 1 hour at 37° C. Cells were then stimulated with 50 pg/ml of LPS (Sigma) excluding outside columns of plate used for unstimulated cell control wells. Cells were incubated for an additional 4 hours at 37° C. Cells were then spun out of the media and 5 μl of sample were taken and analyzed for total TNFα content using the TR-FRET Human TNFα detection system (CisBio). This system utilizes two labeled antibodies (cryptate and XL665) that bind to two different epitopes of the TNFα molecule and produce FRET signal proportional to the concentration of TNFα in the sample. Detection antibodies are mixed 50:50 and 5 μL were dispensed into each well. Plates were covered with clear seals and incubated at room temp overnight. The following morning plates were read using an Envision 2103 Multilabeled reader (PerkinElmer) with excitation/emission/FRET emission at 340 nm/615 nm/665 nm, respectively. Fluorescence intensities at 615 nm and 665 nm emission wavelengths were expressed as a ratio (665 nm/615 nm). Percent of control was calculated as follows: % Control=100×(RatioSample−Ratio0% Stimulation)/(Ratio100% Stimulation−Ratio0% Stimulation)\nwhere unstimulated cells (0% stimulation) were the negative control and stimulated cells (100% stimulation) were used as the positive control."}}, "data": [{"smiles": "CC(C)(O)[C@H](F)CNC(=O)c1cnc(-c2ccc3cc(C#N)cnn23)cc1N[C@H]1CC[C@H](n2cc(C#N)cn2)CC1", "note": "[Compound 24, 4-(((1r,4R)-4-(4-cyano-1H-pyrazol-1-yl)cyclohexyl)amino)-6-(3-cyanopyrrolo[1,2-b]pyridazin-7-yl)-N-((R)-2-fluoro-3-hydroxy-3-methylbutyl)nicotinamide]", "values": [{"measurement": "IC50", "setting": "IRAK4", "value": "< 1", "unit": "nM"}, {"measurement": "EC50", "setting": "TNFα", "value": 19, "unit": "nM"}]}, {"smiles": "Cc1ncc([C@H]2CC[C@H](Nc3cc(-c4ccc5cc(C#N)cnn45)ncc3C(=O)NC[C@@H](F)C(C)(C)O)CC2)s1", "note": "[Compound 50, 6-(3-cyanopyrrolo[1,2-b]pyridazin-7-yl)-N-((R)-2-fluoro-3-hydroxy-3-methylbutyl)-4-(((1r,4R)-4-(2-methylthiazol-5-yl)cyclohexyl)amino)nicotinamide]", "values": [{"measurement": "IC50", "setting": "IRAK4", "value": 1, "unit": "nM"}, {"measurement": "EC50", "setting": "TNFα", "value": 52, "unit": "nM"}]}, {"smiles": "Cn1cc([C@H]2CC[C@H](Nc3cc(-c4ccc5cc(C#N)cnn45)ncc3C(=O)NC[C@@H](F)C(C)(C)O)CC2)cn1", "note": "[Compound 7, 6-(3-cyanopyrrolo[1,2-b]pyridazin-7-yl)-N-((R)-2-fluoro-3-hydroxy-3-methylbutyl)-4-(((1r,4R)-4-(1-methyl-1H-pyrazol-4-yl)cyclohexyl)amino)nicotinamide]", "values": [{"measurement": "IC50", "setting": "IRAK4", "value": 1, "unit": "nM"}, {"measurement": "EC50", "setting": "TNFα", "value": 18, "unit": "nM"}]}, {"smiles": "CC(C)(O)[C@H](F)CNC(=O)c1cnc(-c2ccc3cc(C#N)cnn23)cc1N[C@H]1CC[C@H](c2cnn(C(F)(F)F)c2)CC1", "note": "[Compound 4, 6-(3-cyanopyrrolo[1,2-b]pyridazin-7-yl)-N-((R)-2-fluoro-3-hydroxy-3-methylbutyl)-4-(((1r,4R)-4-(1-(trifluoromethyl)-1H-pyrazol-4-yl)cyclohexyl)amino)nicotinamide]", "values": [{"measurement": "IC50", "setting": "IRAK4", "value": 3, "unit": "nM"}, {"measurement": "EC50", "setting": "TNFα", "value": 37, "unit": "nM"}]}, {"smiles": "CC(C)(O)[C@H](F)CNC(=O)c1cnc(-c2ccc3cc(C#N)cnn23)cc1N[C@H]1CC[C@H](n2cnnc2C(F)F)CC1", "note": "[Compound 37, 6-(3-cyanopyrrolo[1,2-b]pyridazin-7-yl)-4-(((1r,4R)-4-(3-(difluoromethyl)-4H-1,2,4-triazol-4-yl)cyclohexyl)amino)-N-((R)-2-fluoro-3-hydroxy-3-methylbutyl)nicotinamide]", "values": [{"measurement": "IC50", "setting": "IRAK4", "value": 1, "unit": "nM"}, {"measurement": "EC50", "setting": "TNFα", "value": 40, "unit": "nM"}]}, {"smiles": "Cc1ncc(C2CCC(Nc3cc(-c4ccc5cc(C#N)cnn45)ncc3C(=O)NC[C@@H](F)C(C)(C)O)CC2)cn1", "note": "(stereo partly drawn) [Compound 58, (R)-6-(3-cyanopyrrolo[1,2-b]pyridazin-7-yl)-N-(2-fluoro-3-hydroxy-3-methylbutyl)-4-((4-(2-methylpyrimidin-5-yl)cyclohexyl)amino)nicotinamide]", "values": [{"measurement": "IC50", "setting": "IRAK4", "value": 4, "unit": "nM"}, {"measurement": "EC50", "setting": "TNFα", "value": 112, "unit": "nM"}]}, {"smiles": "Cc1nn(C(F)F)cc1C1CCC(Nc2cc(-c3ccc4cc(C#N)cnn34)ncc2C(=O)NC[C@@H](F)C(C)(C)O)CC1", "note": "(stereo partly drawn) [Compound 9, (R)-6-(3-cyanopyrrolo[1,2-b]pyridazin-7-yl)-4-((4-(1-(difluoromethyl)-3-methyl-1H-pyrazol-4-yl)cyclohexyl)amino)-N-(2-fluoro-3-hydroxy-3-methylbutyl)nicotinamide]", "values": [{"measurement": "IC50", "setting": "IRAK4", "value": 7, "unit": "nM"}, {"measurement": "EC50", "setting": "TNFα", "value": 114, "unit": "nM"}]}, {"smiles": "CC(C)(O)[C@H](F)CNC(=O)c1cnc(-c2ccc3cc(C#N)cnn23)cc1N[C@H]1CC[C@H](n2cc(C3CC3)nn2)CC1", "note": "[Compound 32, 6-(3-cyanopyrrolo[1,2-b]pyridazin-7-yl)-4-(((1r,4R)-4-(4-cyclopropyl-1H-1,2,3-triazol-1-yl)cyclohexyl)amino)-N-((R)-2-fluoro-3-hydroxy-3-methylbutyl)nicotinamide]", "values": [{"measurement": "IC50", "setting": "IRAK4", "value": 1, "unit": "nM"}, {"measurement": "EC50", "setting": "TNFα", "value": 63, "unit": "nM"}]}, {"smiles": "CC(C)(O)[C@H](F)CNC(=O)c1cnc(-c2ccc3cc(C#N)cnn23)cc1N[C@H]1CC[C@H](c2cncnc2)CC1", "note": "[Compound 57, 6-(3-cyanopyrrolo[1,2-b]pyridazin-7-yl)-N-((R)-2-fluoro-3-hydroxy-3-methylbutyl)-4-(((1r,4R)-4-(pyrimidin-5-yl)cyclohexyl)amino)nicotinamide]", "values": [{"measurement": "IC50", "setting": "IRAK4", "value": 2, "unit": "nM"}, {"measurement": "EC50", "setting": "TNFα", "value": 11, "unit": "nM"}]}, {"smiles": "CC(C)(O)[C@H](F)CNC(=O)c1cnc(-c2ccc3cc(C#N)cnn23)cc1N[C@H]1CC[C@H](n2nccc2C(F)F)CC1", "note": "[Compound 28, 6-(3-cyanopyrrolo[1,2-b]pyridazin-7-yl)-4-(((1r,4R)-4-(5-(difluoromethyl)-1H-pyrazol-1-yl)cyclohexyl)amino)-N-((R)-2-fluoro-3-hydroxy-3-methylbutyl)nicotinamide]", "values": [{"measurement": "IC50", "setting": "IRAK4", "value": 2, "unit": "nM"}, {"measurement": "EC50", "setting": "TNFα", "value": 187, "unit": "nM"}]}, {"smiles": "CC(C)(O)[C@H](F)CNC(=O)c1cnc(-c2ccc3cc(C#N)cnn23)cc1N[C@H]1CC[C@H](n2cc(C(F)F)nn2)CC1", "note": "[Compound 35, 6-(3-cyanopyrrolo[1,2-b]pyridazin-7-yl)-4-(((1r,4R)-4-(4-(difluoromethyl)-1H-1,2,3-triazol-1-yl)cyclohexyl)amino)-N-((R)-2-fluoro-3-hydroxy-3-methylbutyl)nicotinamide]", "values": [{"measurement": "IC50", "setting": "IRAK4", "value": "< 1", "unit": "nM"}, {"measurement": "EC50", "setting": "TNFα", "value": 16, "unit": "nM"}]}, {"smiles": "Cn1nnc([C@H]2CC[C@H](Nc3cc(-c4ccc5cc(C#N)cnn45)ncc3C(=O)NC[C@@H](F)C(C)(C)O)CC2)n1", "note": "[Compound 15, 6-(3-cyanopyrrolo[1,2-b]pyridazin-7-yl)-N-((R)-2-fluoro-3-hydroxy-3-methylbutyl)-4-(((1r,4R)-4-(2-methyl-2H-tetrazol-5-yl)cyclohexyl)amino)nicotinamide]", "values": [{"measurement": "IC50", "setting": "IRAK4", "value": "< 1", "unit": "nM"}, {"measurement": "EC50", "setting": "TNFα", "value": 35, "unit": "nM"}]}, {"smiles": "CC(C)(O)[C@H](F)CNC(=O)c1cnc(-c2ccc3cc(C#N)cnn23)cc1NC12CCC(c3nncs3)(CC1)CC2", "note": "[Compound 61, (R)-4-((4-(1,3,4-thiadiazol-2-yl)bicyclo[2.2.2]octan-1-yl)amino)-6-(3-cyanopyrrolo[1,2-b]pyridazin-7-yl)-N-(2-fluoro-3-hydroxy-3-methylbutyl)nicotinamide]", "values": [{"measurement": "IC50", "setting": "IRAK4", "value": "< 1", "unit": "nM"}, {"measurement": "EC50", "setting": "TNFα", "value": 4, "unit": "nM"}]}, {"smiles": "CC(C)(O)[C@H](F)CNC(=O)c1cnc(-c2ccc3cc(C#N)cnn23)cc1N[C@H]1CC[C@H](c2nnc(C(F)F)o2)OC1", "note": "[Compound 74, 6-(3-cyanopyrrolo[1,2-b]pyridazin-7-yl)-4-(((3S,6R)-6-(5-(difluoromethyl)-1,3,4-oxadiazol-2-yl)tetrahydro-2H-pyran-3-yl)amino)-N-((R)-2-fluoro-3-hydroxy-3-methylbutyl)nicotinamide]", "values": [{"measurement": "IC50", "setting": "IRAK4", "value": 0.868, "unit": "nM"}, {"measurement": "EC50", "setting": "TNFα", "value": 71.4, "unit": "nM"}]}, {"smiles": "CC(C)(O)[C@H](F)CNC(=O)c1cnc(-c2ccc3cc(C#N)cnn23)cc1N[C@H]1CC[C@H](c2cn(C3CC3)nn2)CC1", "note": "[Compound 20, 6-(3-cyanopyrrolo[1,2-b]pyridazin-7-yl)-4-(((1r,4R)-4-(1-cyclopropyl-1H-1,2,3-triazol-4-yl)cyclohexyl)amino)-N-((R)-2-fluoro-3-hydroxy-3-methylbutyl)nicotinamide]", "values": [{"measurement": "IC50", "setting": "IRAK4", "value": 1, "unit": "nM"}, {"measurement": "EC50", "setting": "TNFα", "value": 49, "unit": "nM"}]}, {"smiles": "Cc1cnn([C@H]2CC[C@H](Nc3cc(-c4ccc5cc(C#N)cnn45)ncc3C(=O)NC[C@@H](F)C(C)(C)O)CC2)c1", "note": "[Compound 26, 6-(3-cyanopyrrolo[1,2-b]pyridazin-7-yl)-N-((R)-2-fluoro-3-hydroxy-3-methylbutyl)-4-(((1r,4R)-4-(4-methyl-1H-pyrazol-1-yl)cyclohexyl)amino)nicotinamide]", "values": [{"measurement": "IC50", "setting": "IRAK4", "value": "< 1", "unit": "nM"}, {"measurement": "EC50", "setting": "TNFα", "value": 91, "unit": "nM"}]}, {"smiles": "CC(C)(O)[C@H](F)CNC(=O)c1cnc(-c2ccc3cc(C#N)cnn23)cc1N[C@H]1CC[C@@H](c2cn[nH]c2)CC1", "note": "[Compound 2, 4-(((1s,4S)-4-(1H-pyrazol-4-yl)cyclohexyl)amino)-6-(3-cyanopyrrolo[1,2-b]pyridazin-7-yl)-N-((R)-2-fluoro-3-hydroxy-3-methylbutyl)nicotinamide]", "values": [{"measurement": "IC50", "setting": "IRAK4", "value": "< 1", "unit": "nM"}, {"measurement": "EC50", "setting": "TNFα", "value": 66, "unit": "nM"}]}]}
